Test results from patent US20040186166A1, “Cannabinoid analogs as peroxisome proliferator activated nuclear receptor gamma activators” (priority 2002, published 2004).

Tests used:
[1] = molecular target: T1, PPARγ / GST-RAC3 (amino acids 613-752) (Mus musculus, UniProt P37238); assay: GST pull-down assay, PPARγ with GST-RAC3; type: binding; conditions: 20 μM AJA
T1 construct: made in house; host or cells: PPARγ1: reticulocyte lysate; GST-RAC3: E. coli BL21, kept on glutathione-Sepharose beads
T1 sequence (P37238 1-475 isoform P37238-2): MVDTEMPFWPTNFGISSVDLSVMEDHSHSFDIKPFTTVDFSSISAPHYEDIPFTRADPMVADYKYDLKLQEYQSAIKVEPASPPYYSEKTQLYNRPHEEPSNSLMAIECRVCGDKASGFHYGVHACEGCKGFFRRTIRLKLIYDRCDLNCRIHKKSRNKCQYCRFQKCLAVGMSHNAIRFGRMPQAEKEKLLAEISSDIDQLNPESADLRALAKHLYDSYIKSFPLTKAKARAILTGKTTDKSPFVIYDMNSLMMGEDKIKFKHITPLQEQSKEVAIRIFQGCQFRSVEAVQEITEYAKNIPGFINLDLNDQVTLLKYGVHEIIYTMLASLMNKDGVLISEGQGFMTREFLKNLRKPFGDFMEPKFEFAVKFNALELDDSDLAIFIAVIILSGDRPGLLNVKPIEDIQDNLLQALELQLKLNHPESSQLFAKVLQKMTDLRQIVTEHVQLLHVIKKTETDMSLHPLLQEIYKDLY
T1 sequence (Q9Y6Q9 613-752 partner limits assumed): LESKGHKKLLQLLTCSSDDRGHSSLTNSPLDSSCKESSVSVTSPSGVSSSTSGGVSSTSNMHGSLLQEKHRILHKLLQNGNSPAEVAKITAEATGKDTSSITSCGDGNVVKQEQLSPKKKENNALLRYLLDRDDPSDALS
Procedure: The glutathione S-transferase (GST)-DRIP205 (amino acid 527-970) and GST-RAC3 RID (amino acid 613-752) fusion proteins were expressed in BL21 cells by induction with 0.1 mM isopropyl-β-D-thiogalactopyranoside (IPTG) at room temperature for 4 hours. The bacterial pellet was resuspended in STE buffer (150 mM NaCl, 10 mM Tris pH 8.0, 1 mM EDTA), containing 5 mM dithiothreitol (DTT), 1 mM phenylmethlsulfonyl fluoride (PMSF) and 1.5% Sarkosyl. The cell suspension was sonicated and centrifuged at 7400 rpm at 4° C. for 30 minutes. The supernatant was isolated and 0.02% Triton-X 100 was added, and the mixture was then incubated with 1 ml 50% slurry of glutathione-Sepharose beads on a rotator at 4° C. for 30 minutes. The beads were spun down at 3000 rpm for 10 minutes, the supernatant was removed, and the beads were suspended in 1 ml cold PBS.
Approximately 5 μg of GST-DRIP205 or GST-RAC3 bound on glutathione-Sepharose beads and 4 μl ^35S-methionine-labeled mPPARγ1 were incubated with the indicated concentrations of AJA, GW347845, or vehicle alone in H buffer (20 mM Hepes [pH 7.7], 75 mM KCl, 0.1 mM EDTA, 2.5 mM MgCl2, 0.05% NP40, 0.1 mM methionine, 1 mM DTT) containing 1 mg/ml bovine serum albumin (BSA) on a rotator at 4° C. overnight. After three washes with cold PBS, the bound protein was eluted in SDS sample buffer and boiled for 10 min before SDS-PAGE and autoradiography. […]

[2] = test system: 3T3 L1 fibroblasts; assay: Adipocyte differentiation assay, Oil Red O staining; type: cell-based; conditions: 20 μM AJA, 10 days, 10 μg/ml insulin
Procedure: The adipocyte differentiation assay was performed as described by Mukherjee et. al. (Mol Endocrinol 14: 1425-33, 2000). The 3T3 L1 cells (American Type Culture Collection) were cultured in DMEM media supplemented with 10% calf serum. Two days after reaching confluence, cells were treated with AJA, GW347845, or vehicle (0.1% DMSO) in the presence of 10 μg/ml insulin every other day. After 10 days of treatment with AJA or 7 days with GW347845 at confluence, cells were fixed and stained with Oil Red O (Sigma). For RT-PCR, total cellular RNAs were isolated by TRIzol (Gibco). Reverse transcriptase polymerase chain reaction (RT-PCR) was performed using the superscript first-strand synthesis kit (Invitrogen). After first-strand cDNA was synthesized by use of oligo (dT), cDNA was amplified by PCR. […]
3T3 L1 fibroblasts cells were cultured in DMEM supplemented with 10% calf serum. […] The cells were treated for 10 days with AJA, or 7 days with GW347845, and lipid accumulation in cells was assessed by Oil Red O staining.

[3] = molecular target: COX-1 (Homo sapiens, UniProt P23219); conditions: 0.25-25 μM, Zurier et al. 1998; cited from earlier work
[4] = cited from earlier work

Chain of COX-1 (P23219 24-599): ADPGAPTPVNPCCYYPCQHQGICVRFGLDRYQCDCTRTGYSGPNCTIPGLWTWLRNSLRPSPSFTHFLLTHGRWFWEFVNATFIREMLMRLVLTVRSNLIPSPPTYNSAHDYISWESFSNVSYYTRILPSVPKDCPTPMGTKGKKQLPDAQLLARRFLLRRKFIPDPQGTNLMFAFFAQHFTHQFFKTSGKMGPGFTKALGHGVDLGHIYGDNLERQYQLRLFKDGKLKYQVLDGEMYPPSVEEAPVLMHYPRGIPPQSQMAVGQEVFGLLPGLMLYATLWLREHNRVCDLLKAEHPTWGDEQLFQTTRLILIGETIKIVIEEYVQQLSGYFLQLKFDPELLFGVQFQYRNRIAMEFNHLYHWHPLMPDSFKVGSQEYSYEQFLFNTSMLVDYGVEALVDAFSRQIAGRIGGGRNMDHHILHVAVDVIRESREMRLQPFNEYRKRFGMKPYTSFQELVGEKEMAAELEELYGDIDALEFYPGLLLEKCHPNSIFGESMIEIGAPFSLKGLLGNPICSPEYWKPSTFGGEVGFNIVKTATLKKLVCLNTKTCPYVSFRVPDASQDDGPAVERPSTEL

In the case of CCCCCCC(C)(C)c1cc(O)c2c(c1)OC(C)(C)[C@@H]1CC=C(C(=O)O)C[C@@H]21 [AJA, dimethylheptyl-THC-11-oic acid], the “binding of PPARγ to GST-RAC3” value [1] is given as “increased binding”, the “lipid accumulation, Oil Red O staining” value [2] is given as “dramatic increase in lipid droplet staining” and the “effect on COX-1 activity” value [3] is given as “no effect”. The drug dependence ([4]; in vivo) was “did not exhibit drug dependence”, the mutagenesis ([4]; in vivo) was “did not exhibit drug dependence or cause mutagenesis” and the ulcerogenicity ([4]; therapeutically relevant doses) was “totally non-ulcerogenic”.
